Results from patent publication US4268505A, “Pharmaceutical composition comprising a nitrogen-containing polysaccharide and an antibiotic agent, and a method of treating an infectious disease therewith” (priority 1979, dated 1981).

Legend:
Staphylococcus aureus = assay: Minimum growth inhibiting concentration, agar plate method; type: cell-based; details: for Minimum growth inhibiting concentration: strain resistant to the respective drug
Procedure: (§1) The drug-resistant strains of bacterial species were obtained in the manner described below according to the concentration gradient plate culture (see "Chemotherapeutics and Resistant Bacteria", 1970, By Chikara Watanabe, Asakura Shoten).
(§2) The agar plates with drug concentration gradient ranging from 10 to 100 μg/ml were prepared, and each strain of the bacterial species to be tested was streaked or smeared. These plates were kept at 37° C. for several days and the colony formed in the high concentration area was isolated and again similarly inoculated to the plates. Such operation was repeated several times to obtain the bacterial strains resistant to the respective drugs.
(§3) The drug sensitivity of the drug-resistant strains and that of the original strains (sensitive strains) were compared by way of the minimum growth inhibiting concentration (hereinafter abbreviated as MIC) according to the Standard Method of the Japanese Chemotherapeutical Association (see "Chemotherapy" Vol. 22, No. 6, 1126 (1974), by MIC Determination Method Reform Committee). More specifically, double diluted systems of each drug were prepared and they were mixed with the heart-infusion agar medium (Nippon Eiyo Kagaku Co., Ltd.) to form the agar plates. Then a loopful of each strain, which had been cultured at 37° C. in Trypto-soy bouillon (Nippon Eiyo Kagaku Co., Ltd.) for 18 hr. was smeared on each the plate, and after culturing for 18 hr. at 37° C., the growth of the strain on each plate was examined.
(§4) The amount of the present substance added is more than 10 μg/ml, preferably more than 100 μg/ml. The pH of the medium was maintained at 7.2±0.1 so that MIC would not be affected by pH of the medium.
(§5) Specimens of the drug-resistant bacterial strain were obtained according to the aforementioned concentration-gradient plate culture by using Staphylococcus aureus, Streptococcus faecalis, Escherichia coli, Salmonella enteritidis, Klebsiella pneumoniae and Pseudomonas aeruginosa.

Klebsiella pneumoniae = assay: as above; type: cell-based; details: for Minimum growth inhibiting concentration: strain resistant to the respective drug
Procedure: as §1, §2, §3, §4, §5

[1] = test system: chloramphenicol-resistant strain of Salmonella enteritidis; assay: Therapeutical test in mice infected with chloramphenicol-resistant Salmonella enteritidis (Example 6); type: in vivo, male ICR-JCL mouse; details: chloramphenicol alone 50 mg/kg i.p., 5 days after administration
Procedure: The following experiment was then carried out on the present substance having the above-mentioned properties.
The chloramphenicol-resistant strain of Salmonella enteritidis were obtained as in Example 1.
A quarter milli-liter of suspension of the aforementioned chloramphenicol-resistant bacterial strain in Tryptosoy-bouillon (see Example 2) including 5% of mucin was intraperitoneally inoculated to each mouse of 5 groups of male ICR-JCL mouse, the group consisting of 10 mice. The inoculum was 1×10^8 cells/mouse. Twenty five hours after the inoculation, 50 mg/kg of chloramphenicol was administered intraperitoneally. 500 mg/kg of the present substance was further given orally to another group. The rate of survival 5 days after the administration was 40% in the group where chloramphenicol alone was administered, while it was 80% in the group where the antibiotic was given in combination with the present substance.

Salmonella enteritidis = assay: Minimum growth inhibiting concentration, agar plate method; type: cell-based; details: for Minimum growth inhibiting concentration: strain resistant to the respective drug
Procedure: as §1, §2, §3
as §4, with “MIC has apparently been reduced to half the level or less before addition of the present substance as will be seen in Table 3 of EXAMPLE 1. The amount” for “The amount”
as §5, with “aeruginosa. The MICs of the original bacterial strains and those of the bacterial strains which have developed resistance to the respective antibiotics are summarized in Table 2.” for “aeruginosa.”

Escherichia coli = assay: as above; type: cell-based; details: for Minimum growth inhibiting concentration: strain resistant to the respective drug
Procedure: as §1, §2, §3
as §4, with “MIC has apparently been reduced to half the level or less before addition of the present substance as will be seen in Table 3 of EXAMPLE 1. The amount” for “The amount”
as §5, with “aeruginosa. The MICs of the original bacterial strains and those of the bacterial strains which have developed resistance to the respective antibiotics are summarized in Table 2.” for “aeruginosa.”

[2] = test system: Streptococcus faecalis resistant to erythromycin; assay: Therapeutical treatment of mice infected with erythromycin-resistant Streptococcus faecalis (Example 9); type: in vivo, male ICR-JCL mice; details: only erythromycin 50 mg/kg oral, 7th day
Procedure: Experiments of therapeutical treatment of animals infected with an erythromycin-resistant bacterial strain were carried out using the present substance, i.e., a nitrogen-containing polysaccharide prepared by the procedures described in Example 1.
After keeping the mice under usual conditions for 6 days, the rate of survival of each mouse was observed on 7th day.

Enterobacter aerogenes = assay: Minimum growth inhibiting concentration, agar plate method; type: cell-based; details: for Minimum growth inhibiting concentration: strain resistant to the respective drug
[3] = test system: kanamycin-resistant strain of Shigella sonnei; assay: Therapeutical treatment of mice infected with kanamycin-resistant Shigella sonnei (Example 10); type: in vivo, male ICR-JCL mice; details: only kanamycin 20 mg/kg i.p., 7th day
Procedure: Similar experiments of therapeutical treatment as in Example 9 was performed by using the present substance obtained by the procedures described in Example 1.
A kanamycin-resistant strain of Shigella sonnei obtained by the procedures described in Example 1 was intraperitoneally inoculated to the two groups (each group comprising 10 animals) of male ICR-JCL mice at a rate of 1×10^8 cells/mouse, and after 2 hours of the inoculation, 20 mg/kg of kanamycin was intraperitoneally administered to the mice of one group, and 100 mg/kg of the present substance and 20 mg/kg of kanamycin were almost simultaneously administered to the mice of another group. After keeping the mice under usual conditions for 6 days. Their rate of survival was observed on 7th day.

Shigella sonnei = assay: Minimum growth inhibiting concentration, agar plate method; type: cell-based; details: for Minimum growth inhibiting concentration: strain resistant to the respective drug
[4] = test system: streptomycin resistant strain of Klebsiella pneumoniae; assay: Therapeutical test in mice infected with streptomycin-resistant Klebsiella pneumoniae (Example 7); type: in vivo, male ICR-JCL mouse; details: streptomycin singly 100 mg/kg i.p., 6 days after administration
Procedure: The streptomycin resistant strain of Klebsiella pneumoniae was obtained by the procedure of Exampe 1 and 0.25 ml of a Trypto-soy bouillon (see Example 2) containing 5% of mucin and the bacterial strain was intraperitoneally inoculated to each mouse of 2 groups of male ICR-JCL mouse, the group consisting of 10 mice at the rate of 1×10^8 cells per mouse. Three hours after this inoculation, 100 mg/kg of streptomycin was intraperitoneally administered. Another group was further given 120 mg/kg of the present substance, obtained by the description in Example 6, via intraperitoneal administration. The survival rate 6 days after administration was 50% in the group where streptomycin was used singly, but it was as high as 80% in the group where the present substance was used with streptomycin.

Streptococcus faecalis = assay: Minimum growth inhibiting concentration, agar plate method; type: cell-based; details: for Minimum growth inhibiting concentration: strain resistant to the respective drug
Procedure: as §1, §2, §3
as §4, with “MIC has apparently been reduced to half the level or less before addition of the present substance as will be seen in Table 3 of EXAMPLE 1. The amount” for “The amount”
as §5, with “aeruginosa. The MICs of the original bacterial strains and those of the bacterial strains which have developed resistance to the respective antibiotics are summarized in Table 2.” for “aeruginosa.”

[5] = test system: colistin-resistant strain of Pseudomonas aeruginosa; assay: Therapeutical test in mice infected with colistin-resistant Pseudomonas aeruginosa (Example 8); type: in vivo, male ICR-JCL mice; details: single colistin 190 mg/kg i.p., 6 days after administration
Procedure: A quarter milli-liter of a suspension of the colistin-resistant strain of Pseudomonas aeruginosa cultured by the same procedure in Example 1 in Trypto-soy bouillon (see Example 2) including 5% of mucin was intraperitoneally inoculated to each mouse of 2 groups of male ICR-JCL mice (body weight: 22±1 g, 10 mice a group) at the rate of 1×10^8 cells/mouse. […] The present substance obtained by the same procedure as in Example 6 was also orally administered at a dose of 1,500 mg/kg.

Pseudomonas aeruginosa = assay: Minimum growth inhibiting concentration, agar plate method; type: cell-based; details: for Minimum growth inhibiting concentration: strain resistant to the respective drug
Procedure: as §1, §2, §3, §4, §5

[6] = strain resistant to the respective antibiotic (Table 2)
[7] = present substance added at 100 μg/ml
[8] = present substance not added (Table 3)
[9] = present substance added at 1000 μg/ml

Molecule	Minimum growth inhibiting concentration (MIC) (Staphylococcus aureus; original strain)	Minimum growth inhibiting concentration (MIC) (Staphylococcus aureus; [6])	Minimum growth inhibiting concentration (Staphylococcus aureus; [8])	Minimum growth inhibiting concentration (MIC) (Klebsiella pneumoniae; original strain)	Minimum growth inhibiting concentration (MIC) (Klebsiella pneumoniae; [6])	Minimum growth inhibiting concentration (Klebsiella pneumoniae; [8])	Minimum growth inhibiting concentration (MIC) (Salmonella enteritidis; original strain)	Minimum growth inhibiting concentration (MIC) (Salmonella enteritidis; [6])	Minimum growth inhibiting concentration (MIC) (Escherichia coli; original strain)	Minimum growth inhibiting concentration (MIC) (Escherichia coli; [6])	Minimum growth inhibiting concentration (Escherichia coli; [8])	also measured
O=C(N[C@H](CO)[C@H](O)c1ccc([N+](=O)[O-])cc1)C(Cl)Cl [CP, Chlorampheniocol]	3.1 µg/mL	25 µg/mL	25 µg/mL	0.8 µg/mL	25 µg/mL	25 µg/mL	0.8 µg/mL	12.5 µg/mL	1.6 µg/mL	50 µg/mL	50 µg/mL	Minimum growth inhibiting concentration (Staphylococcus aureus; [7]): 6.3 µg/mL; Minimum growth inhibiting concentration (Klebsiella pneumoniae; [7]): 6.3 µg/mL; rate of survival [1]: 40%; Minimum growth inhibiting concentration (Salmonella enteritidis; [7]): 3.2 µg/mL; Minimum growth inhibiting concentration (Salmonella enteritidis; [8]): 12.5 µg/mL; Minimum growth inhibiting concentration (Escherichia coli; [7]): 12.5 µg/mL
CC[C@H]1OC(=O)[C@H](C)[C@@H](O[C@H]2C[C@@](C)(OC)[C@@H](O)[C@H](C)O2)[C@H](C)[C@@H](O[C@@H]2O[C@H](C)C[C@H](N(C)C)[C@H]2O)[C@](C)(O)C[C@@H](C)C(=O)[C@H](C)[C@@H](O)[C@]1(C)O [EM, Erythromycin]	0.4 µg/mL				> 100 µg/mL		> 100 µg/mL		> 100 µg/mL			Minimum growth inhibiting concentration (Staphylococcus aureus; [9]): 3.2 µg/mL; rate of survival [2]: 50%
NC[C@H]1O[C@H](O[C@H]2[C@H](O)[C@@H](O[C@H]3O[C@H](CO)[C@@H](O)[C@H](N)[C@H]3O)[C@H](N)C[C@@H]2N)[C@H](O)[C@@H](O)[C@@H]1O [KM, Kanamycin]									6.3 µg/mL	200 µg/mL	200 µg/mL	Minimum growth inhibiting concentration (Escherichia coli; [9]): 50 µg/mL; Minimum growth inhibiting concentration (MIC) (Enterobacter aerogenes; original strain): 3.1 µg/mL; Minimum growth inhibiting concentration (MIC) (Enterobacter aerogenes; [6]): 100 µg/mL; Minimum growth inhibiting concentration (Enterobacter aerogenes; [9]): 12.5 µg/mL; Minimum growth inhibiting concentration (Enterobacter aerogenes; [8]): 100 µg/mL; rate of survival [3]: 30%; Minimum growth inhibiting concentration (MIC) (Shigella sonnei; original strain): 3.1 µg/mL; Minimum growth inhibiting concentration (MIC) (Shigella sonnei; [6]): 50 µg/mL; Minimum growth inhibiting concentration (Shigella sonnei; [9]): 12.5 µg/mL; Minimum growth inhibiting concentration (Shigella sonnei; [8]): 50 µg/mL
CC1(C)S[C@@H]2[C@H](NC(=O)Cc3ccccc3)C(=O)N2[C@H]1C(=O)O [PG, Penicillin G]	0.025 µg/mL	12.5 µg/mL	12.5 µg/mL	6.3 µg/mL	> 100 µg/mL		6.3 µg/mL	> 100 µg/mL	12.5 µg/mL	> 100 µg/mL		Minimum growth inhibiting concentration (Staphylococcus aureus; [9]): 1.6 µg/mL
[H]/N=C(/N)N[C@H]1[C@H](O)[C@@H](O)[C@H](O[C@@H]2O[C@@H](C)[C@](O)(C=O)[C@H]2O[C@@H]2O[C@@H](CO)[C@H](O)[C@@H](O)[C@@H]2NC)[C@@H](N/C(N)=N\[H])[C@@H]1O [SM, Streptomycin]	1.6 µg/mL	> 100 µg/mL		1.6 µg/mL	100 µg/mL	100 µg/mL	25 µg/mL	> 100 µg/mL	3.1 µg/mL	100 µg/mL	100 µg/mL	Minimum growth inhibiting concentration (Klebsiella pneumoniae; [9]): 25 µg/mL; survival rate [4]: 50%; Minimum growth inhibiting concentration (Escherichia coli; [9]): 25 µg/mL
CN(C)[C@@H]1C(O)=C(C(N)=O)C(=O)[C@@]2(O)C(O)=C3C(=O)c4c(O)cccc4[C@@](C)(O)[C@H]3C[C@@H]12 [TC, Tetracycline]	0.8 µg/mL	25 µg/mL	25 µg/mL	1.6 µg/mL	25 µg/mL	25 µg/mL	1.6 µg/mL	12.5 µg/mL	3.1 µg/mL	25 µg/mL	25 µg/mL	Minimum growth inhibiting concentration (Staphylococcus aureus; [7]): 3.2 µg/mL; Minimum growth inhibiting concentration (Klebsiella pneumoniae; [7]): 12.5 µg/mL; Minimum growth inhibiting concentration (Salmonella enteritidis; [7]): 6.3 µg/mL; Minimum growth inhibiting concentration (Salmonella enteritidis; [8]): 12.5 µg/mL; Minimum growth inhibiting concentration (Escherichia coli; [7]): 6.3 µg/mL; Minimum growth inhibiting concentration (MIC) (Streptococcus faecalis; original strain): 0.4 µg/mL; Minimum growth inhibiting concentration (MIC) (Streptococcus faecalis; [6]): 25 µg/mL; Minimum growth inhibiting concentration (Streptococcus faecalis; [7]): 6.3 µg/mL; Minimum growth inhibiting concentration (Streptococcus faecalis; [8]): 25 µg/mL
Colistin [CL]												rate of survival [5]: 40%; Minimum growth inhibiting concentration (MIC) (Pseudomonas aeruginosa; [6]): 200 µg/mL; Minimum growth inhibiting concentration (Pseudomonas aeruginosa; [9]): 100 µg/mL; Minimum growth inhibiting concentration (Pseudomonas aeruginosa; [8]): 200 µg/mL
